Patent publication US8383663B2, “Bendamustine anionic-catioinic cyclopolysaccharide compositions” (priority 2010, dated 2013)
Counter-ions that a name gives are not always drawn.

System: human breast carcinoma MDA-MB-231 cells
Assay: Growth of subcutaneous solid tumors of human breast carcinoma MDA-MB-231 cells in mice
Format: in vivo, Balb/c mice
Conditions: 35 mg/kg i.v. on day 1, 2, 13 and 14, Average (SEM)
Description: Effect of bendamustine in a composition comprising sodium sulfobutyl ether β-cyclodextrin and heptakis(6-amino-6-deoxy-β-cyclodextrin) on growth of subcutaneous solid tumors of human breast carcinoma MDA-MB-231 cells in Balb/c mice.
Balb/c mice aging 5 to 6 weeks were purchased from Charles River Canada Inc. The animals were kept 5 per cage with an air filter cover under light (12 light/dark cycle, light on at 6H00) and temperature (22°±1° C.)-controlled environment. All manipulations of animals were performed under a sterilized laminar. The animals had ad libitum access to Purina mouse chow (Pro Lab PMH 4018, Trademark of Agway, Syracuse, N.Y.) and water. These animal studies were conducted according to the “Guidelines for Care and Use of Experimental Animals”.
Human breast cancer cells MDA-MB 231 were cultured in the appropriated culture medium. The cells were harvested in their logarithmic growth phase for the preparation of tumor implantation.
MDA-MB-231 cells (5.0×10^5 cells per an injection) in culture medium with 30% Matrigel were subcutaneously inoculated at 2 sides of the flank of each animal. Nine to ten days after implantation, when tumor size reaches to 0.5 to 0.8 cm in the diameter, the animals were be randomly divided into groups, 5 animals per group. The treatments by intravenously injection were performed on day 1, 2, 13 and 14. The control group was treated with isotonic saline. The reference group was treated with 35 mg/kg dose of bendamustine HCl in water (7 mg/mL). The test group was treated with 60 mg/kg dose (equitoxic to the reference group treatment) of the composition of the present invention, comprising 13 mg/g bendamustine HCl, 20% SBECD and 1% H6A, and mannitol, prepared according to the procedure set forth in Example 1.
Subcutaneous solid tumor measurements were performed on the day of first injection and at 3- to 4-day intervals thereafter. Two largest perpendicular diameters of each tumor were measured with calipers and tumor size was estimated using formula […] where TV: tumor volume; L: length; W: width.
The body weights of animals were also noted.

## Cn1c(CCCC(=O)O)nc2cc(N(CCCl)CCCl)ccc21 [Reference BM, bendamustine HCl]
Day 0
  Tumor weight after treatment: 0.111 (0.013) g
Day 2
  Tumor weight after treatment: 0.123 (0.016) g
Day 5
  Tumor weight after treatment: 0.134 (0.015) g
Day 7
  Tumor weight after treatment: 0.146 (0.017) g
Day 9
  Tumor weight after treatment: 0.156 (0.017) g
Day 12
  Tumor weight after treatment: 0.174 (0.018) g
Day 14
  Tumor weight after treatment: 0.205 (0.021) g
Day 16
  Tumor weight after treatment: 0.228 (0.024) g
Day 19
  Tumor weight after treatment: 0.248 (0.035) g
Day 21
  Tumor weight after treatment: 0.272 (0.042) g
Day 23
  Tumor weight after treatment: 0.296 (0.047) g
